According to a melting point compilation (Tetko et al.; mined from patent text by program, amines drawn as free bases though some values may be those of a salt):

SMILES	melting point [°C]
CCC(=O)N1CCc2cc(O)c(OC)cc2C1	116 to 118
N#Cc1nn(-c2c(Cl)cc(C(F)(F)F)cc2Cl)cc1-c1occc1Br	99 to 101
COc1nccc(C)c1NC(=O)OC(C)(C)C	93 to 95
CN1C(=O)C2CCCN2C(=O)c2ccccc21 (stereo not drawn)	124 to 126
COc1ccc(N2CCN(c3c(C)c(C)c4c(c3C)C(O)(c3ccccc3)C(C)(C)O4)CC2)cc1 (stereo not drawn)	123 to 125
CCOC(=O)C(=CNCc1cnsn1)C(=O)c1cc(F)c(F)cc1F	168 to 170
CNC(=O)N1CCc2nc(N)sc2C1	202
CCCOc1cc(OCCC)c2c(C)c(CCO)c(=O)oc2c1	106 to 108
O=C(O)c1cc(NCc2c(F)c(F)c(C(F)(F)F)c(F)c2F)ccc1O	179
CCOC(=O)C1=C(NC(=O)Nc2cc(C(=O)OC(C)C)c(F)cc2F)CCC1	149 to 151
CCOC=C(C(C)=O)C(=O)NCc1ccc(Cl)cc1	103 to 105
CCOC(=O)c1ccc2oc3ccc(OC)cc3c(=O)c2c1	170 to 172
CCOC(=O)c1nc(C)n2c1CN=C(c1ccccc1Cl)c1cc([N+](=O)[O-])ccc1-2	233 to 234
FC(F)(F)c1cccc(-c2cnn(-c3cccnc3)c2)n1	130 to 131
c1ccc(-c2ccc(CN3CCN(c4ccccc4)CC3)s2)cc1	88
Cc1cc(Br)c2c(c1)C=C(C(=O)O)C(C(F)(F)F)O2 (stereo not drawn)	237 to 238
COc1ccc(N2CCN(c3c(C)c(C=O)c4c(c3C)C(c3ccc(C)cc3)C(C)(C)O4)CC2)cc1 (stereo not drawn)	175 to 177
O=C(O)c1c(Cc2cc3c(cc2Cl)OCO3)c(-c2ccco2)nn1CC1CCCCC1	248
CCOC(=O)CC(C#N)(CC(=O)OCC)c1ccc(F)cc1	68 to 70
Cc1ccc(-c2ccccc2-c2nnn[nH]2)cc1	148 to 150
O=C1CC(SCc2ccccc2)N1 (stereo not drawn)	50 to 51

SMILES	melting point [°C]
Fc1ccc(-n2c(CCl)csc2=S)c(F)c1F	127 to 130
Cc1ccc(C#N)c(OC(C)(C)C=O)c1	57 to 59
Cn1cc(C2=C(c3c4n(c5ccccc35)C[C@@H]3CN(C=O)C[C@@H]3C4)C(=O)NC2=O)c2ccccc21 (relative stereo)	316 to 318
FC(F)(F)c1cc(N(Cc2ccsc2)Cc2ccccn2)cc(C(F)(F)F)c1Br	58 to 59
CC(C)(C)c1ccc(S(=O)(=O)N2c3ccccc3C[C@H]2C(=O)NCc2ccc(CCC(=O)O)cc2)cc1	80 to 85
CC1N=C(c2ccccc2)c2cc(Cl)ccc2NC1=O (stereo not drawn)	224
CC(=O)Oc1cccc(C(=O)NCCO[N+](=O)[O-])c1	89 to 91
S=c1[nH]ccn1Cc1ccco1	106 to 108
COc1ccc(C#CC(C)N(O)C(N)=O)o1 (stereo not drawn)	131
COC(=O)c1cc(C(=O)N2COCC2(C)C)c2cc(Cc3ccc(F)cc3)cnc2c1O	149 to 150
CCn1ncc(OCc2ccc(OCOC)cc2)c(Br)c1=O	104 to 106
O=Cc1nn(-c2ccc([N+](=O)[O-])cc2)c2c1CCCC2	147 to 148
NC(=O)CC[C@H](NC(=O)c1ccc(OCc2ccccc2)cc1OCc1ccccc1)C(=O)N1CCN(Cc2ccccc2)CC1	133 to 135
OC1Cc2ccccc2C1O (stereo not drawn)	98 to 100
COc1ccccc1N1CCc2c(C)nc3c(OC)cccc3c21	168 to 169
Cc1c(O)c2c(c(C)c1NC(=O)CC(C)(C)C)[C@@H](c1ccc(C(C)C)cc1)CO2	181 to 182
c1cn(CCOc2ccc(-c3nnn[nH]3)cc2)cn1	196 to 197
Cc1nc2c(s1)Cc1cc(Cl)ccc1-2	94
COc1cc2ncc(N[C@@H]3C[C@@H]4C[C@H]3C[C@H]4O)nc2cc1OC	190 to 192
COc1ccc(-c2c3c(c(C)c4ccc(OC)cc24)C(=O)NC3=O)cc1	282 to 284
CC(C)C(C#N)NC(=O)c1snc(Cl)c1Cl (stereo not drawn)	120 to 121

SMILES	melting point [°C]
CCOC(=O)c1ccc(NC(=O)CCc2ccc(OC)cc2)cc1	134 to 136
CN1C(=O)C(C)(C)N=C(c2ccccc2Cl)c2cc([N+](=O)[O-])cc(Cl)c21	254
CCCCC(=O)c1c(CBr)nc2cc(OC)c(OC)cc2c1-c1ccc(OC)c(OC)c1	150 to 151
CCOC(=O)C1CCCC1NC(=O)C=C(C)OC (stereo not drawn)	74
Cc1cc(COc2ccc3nc(NC(=O)NCCN4CCOCC4)sc3c2)n(C)n1	160
NC(=O)COCc1nnc(S)s1	216 to 217
Nc1ncc2c(n1)-c1sc(N)nc1CC2	293 to 300
Cc1ccc(S(=O)(=O)Nc2ccc([N+](=O)[O-])cc2C)cc1	173 to 174
CCOC(C)=C(C#N)C(=O)c1ccc(F)cc1	77
O=C(O)c1cc(Cl)c(Cl)c2c1OCC(CO)O2 (stereo not drawn)	175 to 177
CCOC(=O)CNC(=O)CCN(C(=O)c1ccc(Cl)cc1)c1ccc(OC)cc1	87 to 89
O=C(O)c1cccc(C(=O)CCl)n1	184 to 189
O=C1CC(c2cccc(-n3ccnc3)c2)=Nc2cc(N3CCOC3=O)c(-c3ccc(F)cc3)cc2N1	230
O=C(O)CCCC(=O)NCC1(S)CCCCC1	73 to 74
NCC(C(=O)O)c1c[nH]c2ccc(F)cc12 (stereo not drawn)	244 to 245
O=Cc1cc(-c2ccc(F)cc2Cl)ccc1OC(F)(F)F	64
CCCC(=O)Oc1cc(C(C)C)ccc1C1(OC(=O)CCC)C(=O)c2ccccc2C1=O	98 to 102
COC(=O)c1ccc(C(=O)Nc2cccc(Nc3nc(-c4cccnc4)cs3)c2)cc1	237
COc1cc(N)c2cc[nH]c2c1	83 to 86
COc1c(C)cc2c(c1C)Cc1c-2[nH]c2ccc(C(C)C)cc12	130

Next, values leading:

melting point [°C]	SMILES
139 to 140	CN1Cc2cccnc2N(c2cccc(Cl)c2)C1=O
130 to 132	O=C(Cn1cnc2ccccc21)c1ccc(Cl)cc1Cl
116	O=C(C=Cc1ccc(Oc2ccccc2)cc1)c1ccc(F)cc1
224	O=C(O)CN(C(=O)CN1C(=O)c2ccccc2C1=O)c1ccccc1
134 to 141	O=C(Cc1ccccc1)NC1CN(C(C(=O)O)c2ccc(O)cc2)C1=O (stereo not drawn)
156 to 158	CC(C)(C)CC(=O)c1ccc(O)c(Cl)c1Cl
163 to 165	O=c1c(CCCCc2ccccn2)cc2cccnc2n1-c1cccc([N+](=O)[O-])c1
161 to 164	COc1ccc(CNc2nc(Cl)c3ncn(Cc4ccc(OC)cc4)c3n2)cc1
187 to 190	O=C(O)C1Cc2c(ncn2Cc2ccccc2O)CN1C(=O)C(c1ccccc1)c1ccccc1 (stereo not drawn)
231 to 232	O=C(O)c1ccnc(-c2cccc3cc(Cc4cccc(C(F)(F)F)c4)sc23)c1
53	C=C(Cc1ccc(-c2ccccc2)cc1)CN1CCC(C)CC1
95	COc1cc(C(=CN(C)C)C(C)=O)ccc1OCC(O)CN1CCN(c2ccccc2C)CC1 (stereo not drawn)
162 to 166	O=C(NO)c1ccc2c(c1)CN(C(=O)c1ccc3ccccc3n1)C2
248 to 251	O=C(Oc1ccc([N+](=O)[O-])cc1)c1ccc2[nH]cc(CCN3C(=O)c4ccccc4C3=O)c2c1
183	CN(C(=O)Nc1ccccc1)c1cccc(-c2ccc(CC3SC(=O)NC3=O)cc2)c1 (stereo not drawn)
118 to 120	COc1ccc(C(=O)C2=C(c3ccccc3)c3ccccc3S2=O)cc1 (stereo not drawn)
73 to 75	CN(C)CC/C=C1/c2ccccc2CCc2ccc(Br)cc21
76 to 78	CC(C)c1ccc(/C=C/C(=O)/C=C/c2ccccc2)cc1
150 to 151	CC(C)(C)OC(=O)n1cnc(CN2C[C@@H](Cc3ccccc3)N(S(C)(=O)=O)Cc3cc(C#N)ccc32)c1
142 to 145	COC(=O)c1ccc(OCCCBr)cc1NC(=O)C=Cc1ccc(-c2ccccc2)cc1
192 to 193	COc1cc(Nc2c(C#N)cnc3cc(Br)ccc23)c(Cl)cc1Cl

melting point [°C]	SMILES
132 to 133	Cc1cccc(-c2nc(CC(=O)O)sc2-c2ccnc(N)c2)c1
245 to 248	Cc1nc2c(c(=O)[nH]1)-c1ccc(Cl)cc1C(c1ccccc1)=NC2
166 to 168	O=C1c2ccccc2C(=O)N1OCc1cc[nH]n1
78 to 80	COC(=O)CN1CCC(OC)(c2cccc(OCc3ccc4ccccc4c3)c2)C1 (stereo not drawn)
118 to 119	C[C@@H](n1cnn(-c2ccc(OCC(F)(F)F)cc2)c1=O)[C@@]1(c2ccc(F)cc2F)CO1
56 to 57	CCOC(=O)c1sc(Cl)nc1-c1ccccc1
87 to 88	Cc1oc(-c2ccccc2)nc1COc1ccc(COc2nn(Cc3ccccc3)cc2CC(=O)O)cn1
135 to 136	O=C(O)C(O)COc1ccc(Cl)cc1 (stereo not drawn)
300	Oc1ccccc1-c1nc2sc(-c3ccccc3O)nc2s1
220 to 222	Cc1ccc(N2CCN(Cc3c[nH]c4ncccc34)CC2)cc1
68 to 69	N#CNc1ccccc1-c1ccccc1F
127 to 130	CCC(=Cc1ccccc1)C(=O)c1ccc(OC)c(Cl)c1Cl
160	CN(C)C(=S)Oc1ccc(C(=O)c2cccc(C#N)c2)cc1
124 to 126	O=[N+]([O-])c1ccc(C(Cl)=NNc2ccccc2)c(Cl)c1
189	CN1N=C(c2ccc(Cl)cc2)CC1=O
192 to 195	CS(=O)(=O)c1ccc(-c2sc(-c3ccccc3Cl)nc2-c2ccccc2)cc1
171 to 172	CCN(CC)CC1CCCCN1CC(=O)N1c2ccccc2NC(=O)c2ccccc21 (stereo not drawn)
128 to 129	CCOC(=O)c1c(SC)c(C#N)c(=O)n2ccccc12
203 to 205	CC(C)(Oc1ccc(OCc2ccc3nn(-c4ccc(C(F)(F)F)cc4)cc3c2)cc1)C(=O)O
222 to 223	O=C(CC(NC(=O)OCc1ccccc1)c1ccccc1)Nc1n[nH]c(=S)s1 (stereo not drawn)
